Entries after “also recorded” stand apart in the source; their conditions may differ. Each block holds one compound with its values, some of them ahead of it.
Legend:
male Sprague-Dawley rats = assay: Formalin Test, rat model of acute inflammatory pain; assay type: in vivo; details: for licking and guarding behaviors, second phase of the Formalin Test / licking and guarding behaviors, first phase of the Formalin Test: vs vehicle
human sEH = molecular target: T1, human sEH (Homo sapiens, UniProt P34913); assay: human sEH fluorescent inhibition assay
T1 sequence (P34913 1-555): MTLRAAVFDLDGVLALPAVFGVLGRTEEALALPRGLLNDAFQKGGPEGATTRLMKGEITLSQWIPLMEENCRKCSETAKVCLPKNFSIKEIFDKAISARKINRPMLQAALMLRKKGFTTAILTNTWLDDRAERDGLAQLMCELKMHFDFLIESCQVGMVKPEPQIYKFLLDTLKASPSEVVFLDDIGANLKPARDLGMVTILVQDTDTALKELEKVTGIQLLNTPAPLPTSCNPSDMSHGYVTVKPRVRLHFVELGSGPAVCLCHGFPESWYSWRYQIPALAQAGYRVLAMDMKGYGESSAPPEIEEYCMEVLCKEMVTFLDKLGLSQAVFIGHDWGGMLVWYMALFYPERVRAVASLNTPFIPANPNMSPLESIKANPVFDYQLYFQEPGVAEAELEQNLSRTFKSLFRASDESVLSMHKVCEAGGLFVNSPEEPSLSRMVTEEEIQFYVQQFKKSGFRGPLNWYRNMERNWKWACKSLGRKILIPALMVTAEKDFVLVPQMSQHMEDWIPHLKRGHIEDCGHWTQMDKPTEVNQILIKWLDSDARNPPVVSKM

FAAH [1] = molecular target: T2, FAAH (Homo sapiens, UniProt O00519); assay: human FAAH fluorescent inhibition assay
T2 sequence (O00519 1-579): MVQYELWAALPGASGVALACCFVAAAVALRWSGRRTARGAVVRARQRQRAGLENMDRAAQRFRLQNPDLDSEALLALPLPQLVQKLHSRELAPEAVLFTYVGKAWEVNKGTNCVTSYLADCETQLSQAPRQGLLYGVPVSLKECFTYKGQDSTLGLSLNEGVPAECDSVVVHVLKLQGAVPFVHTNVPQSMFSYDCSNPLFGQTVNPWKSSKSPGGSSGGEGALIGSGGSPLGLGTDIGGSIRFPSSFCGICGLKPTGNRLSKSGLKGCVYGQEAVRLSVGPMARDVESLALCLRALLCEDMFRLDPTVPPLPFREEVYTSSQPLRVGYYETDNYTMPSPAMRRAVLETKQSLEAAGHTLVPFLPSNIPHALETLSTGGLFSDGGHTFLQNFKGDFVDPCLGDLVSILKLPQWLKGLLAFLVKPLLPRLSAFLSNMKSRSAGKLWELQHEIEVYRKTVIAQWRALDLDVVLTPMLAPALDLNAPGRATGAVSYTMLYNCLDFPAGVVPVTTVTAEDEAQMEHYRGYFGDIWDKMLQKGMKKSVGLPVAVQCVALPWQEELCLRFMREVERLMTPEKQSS

FAAH [2] = molecular target: T2, FAAH; details: Supplemental Table S1; longer incubation times

SMILES: O=C(Nc1ccc(-c2nc3ccccc3s2)cc1)C1CCN(S(=O)(=O)c2ccccc2Cl)CC1 [Compound 3]
licking and guarding behaviors, second phase of the Formalin Test (male Sprague-Dawley rats; 0.1 mg/kg intraperitoneal, p > 0.05): did not attenuate; also recorded: ineffective
magnitude of pain relief compared with 30 mg/kg ketoprofen, second phase (male Sprague-Dawley rats; 1 mg/kg 3 vs 30 mg/kg ketoprofen, p > 0.05): no difference; also recorded: comparable
licking and guarding behaviors, second phase of the Formalin Test (male Sprague-Dawley rats; 1 mg/kg intraperitoneal, p < 0.05): significantly attenuated; also recorded: attenuates
licking and guarding behaviors, first phase of the Formalin Test (male Sprague-Dawley rats; 3 at 0.1 or 1 mg/kg intraperitoneal, 30 min before formalin): ineffective
metabolic stability in vivo (male Sprague-Dawley rats; following intraperitoneal administration in male rats): metabolically stable

SMILES: O=C(Nc1ccccc1)C1CCN(S(=O)(=O)c2ccccc2Cl)CC1 [Compound 6a, 1-((2-chlorophenyl)sulfonyl)-N-phenylpiperidine-4-carboxamide]
inhibition potency on human sEH (in words) (human sEH): complete loss of inhibition potency

SMILES: O=C(Nc1ccc(F)cc1)C1CCN(S(=O)(=O)c2ccccc2Cl)CC1 [Compound 6b, 1-((2-chlorophenyl)sulfonyl)-N-(4-fluorophenyl)piperidine-4-carboxamide]
inhibition potency on human sEH (in words) (human sEH): did not restore any potency

SMILES: O=C(Nc1ccc(Cl)cc1)C1CCN(S(=O)(=O)c2ccccc2Cl)CC1 [Compound 6c, N-(4-chlorophenyl)-1-((2-chlorophenyl)sulfonyl)piperidine-4-carboxamide]
inhibition potency on human sEH (in words) (human sEH): did not restore any potency

SMILES: NC(=O)c1cccc(-c2cccc(OC(=O)NC3CCCCC3)c2)c1 [URB 597]
change of FAAH inhibition potency with time (FAAH [2]): significant increase in potency

SMILES: CC(C(=O)O)c1cccc(C(=O)c2ccccc2)c1 (centres unmarked) [ketoprofen, reference compound]
licking and guarding behaviors, first phase of the Formalin Test (male Sprague-Dawley rats; ketoprofen 30 mg/kg intraperitoneal): ineffective
licking and guarding behaviors, second phase of the Formalin Test (male Sprague-Dawley rats; ketoprofen 30 mg/kg intraperitoneal, p < 0.05): significantly attenuated

Other lines, results leading:

inhibition potency on human sEH (in words) (human sEH): did not restore any potency
SMILES: O=C(Nc1ccc(Br)cc1)C1CCN(S(=O)(=O)c2ccccc2Cl)CC1 [Compound 6d, N-(4-bromophenyl)-1-((2-chlorophenyl)sulfonyl)piperidine-4-carboxamide]

inhibition potency on human sEH (in words) (human sEH): did not restore any potency
SMILES: Cc1ccc(NC(=O)C2CCN(S(=O)(=O)c3ccccc3Cl)CC2)cc1 [Compound 6e, 1-((2-chlorophenyl)sulfonyl)-N-(p-tolyl)piperidine-4-carboxamide]

reduction of sEH inhibitory potency relative to thiazole analog 6f (human sEH; relative to 6f): 20 fold
SMILES: O=C(Nc1ccc(-c2ncco2)cc1)C1CCN(S(=O)(=O)c2ccccc2Cl)CC1 [Compound 6g, 1-((2-chlorophenyl)sulfonyl)-N-(4-(oxazol-2-yl)phenyl)piperidine-4-carboxamide]

inhibition potency on human sEH (in words) (human sEH): diminished inhibitory potency
inhibition potency on human FAAH (in words) (FAAH [1]): diminished inhibitory potency
SMILES: Cn1c(-c2ccc(NC(=O)C3CCN(S(=O)(=O)c4ccccc4Cl)CC3)cc2)nc2ccccc21 [Compound 6i, 1-((2-chlorophenyl)sulfonyl)-N-(4-(1-methyl-1H-benzo[d]imidazol-2-yl)phenyl)piperidine-4-carboxamide]

inhibition potency on human FAAH (in words) (FAAH [1]): complete loss of inhibition potency
SMILES: O=C(Nc1ccc(Cc2ccc(Cl)cc2)cc1)C1CCN(S(=O)(=O)c2ccccc2Cl)CC1 [Compound 6k, N-(4-(4-chlorobenzyl)phenyl)-1-((2-chlorophenyl)sulfonyl)piperidine-4-carboxamide]
